Source: patent US11583588B2, “Modular self assembly disassembly (SADA) technologies” (MEMORIAL SLOAN KETTERING CANCER CENTER, priority 2017, dated 2023)
Where two headings read alike, the source gives them in different places.

How the values were obtained:
[1] = Blood and tumor activity after P53-BiDE(noHIS) and 177Lu-Bn-DOTA administration (FIG. 6A, 6D, 6E); type: in vivo, mice; conditions: 177Lu-Bn-DOTA only
Description: FIG. 6A to FIG. 6E depict pharmacokinetics of exemplary SADA-BiDE constructs in vivo. FIG. 6A depicts activity over time after P53-BiDE(noHIS) and Bn-DOTA administration. Each line represents one group, with three mice per group. Triangles denote a group that received P53-BiDE(noHIS) followed by clearing agent (CA) 72 hours later. Squares denote a group that received P53-BiDE(noHIS) without any clearing agent before ^177Lu-Bn-DOTA administration. Circles denote a group that only received ^177Lu-Bn-DOTA but not any SADA-BiDE. Dashed lines correspond to the measured blood activity, while solid lines correspond to the activity measured in the tumor. […] FIG. 6B depicts blood activity of radiolabeled 131I-SADA-BiDE in tumor-free mice. Activity measurements were normalized to the initial measurement for each group. Each line represents one group, with 4-5 mice per group. (+) symbols denote P53-BiDE, (X) symbols denote P63-BiDE and circles denote P73-BiDE. […]
Importantly, even though, as described in the previous examples, P53-BIDE(NOHIS), P53-BiDE, P63-BiDE and P73-BiDE is rapidly cleared from the serum, total tumor uptake of was not affected. With both 24 hours and 72 hours between P53-BIDE(NOHIS) and ^177Lu-Bn-DOTA injections, significant activity (˜15% ID/g) was measured at the tumor site (FIG. 6D) […]

[2] = Clearance of unbound injected Bn-DOTA in a tumor free mouse; type: in vivo; conditions: within four hours
Description: In a tumor free mouse, over 99% of unbound injected Bn-DOTA typically clears from the murine serum within four hours, with the vast majority of it being excreted in the urine within the first 30 minutes. In contrast, previous studies have shown that between 3 to 5% of directly labeled IgG will remain in the blood 48 hours after injection. (Azzopardi, N. et al. (2011) Clin Cancer Res 17, 6329-6337).

[3] = 37° C., cited from earlier work

Molecule | tumor activity, Bn-DOTA alone without SADA-BiDE [1] | unbound injected Bn-DOTA cleared from murine serum [2] | Kd ([3]; read-out: dissociation constant (KD), tetramers dissociating into dimers) [nM] | Kd ([3]; read-out: dissociation constant of dimers into monomers) [nM]
O=C(O)CN1CCN(CC(=O)O)CCN(CC(=O)O)C(Cc2ccccc2)CN(CC(=O)O)CC1 (stereo not shown) [Bn-DOTA, Benzyl-1,4,7,10-tetraazacyclododecane-1,4,7,10-tetraacetic acid, reference compound] | no tumor activity was detected | over 99% |  | 
Tetramerization domain of p53 (residues 321-359): Human p53 tetramerization domain (321-359), SADA domain; SEQ ID NO: 1 |  |  | 150 | 1
